From US20260151391A1, “TREATMENT OF MITOCHONDRIAL DISEASES WITH sGC STIMULATORS” (Tisento Therapeutics Inc., priority 2022, published 2026)

Test system: memory disruption induced by MK-801 in male Long Evans rats
Test: Novel Object Recognition (NOR) test, memory disruption induced by MK-801
Assay type: in vivo, rat
Conditions: any dose tested, oral
Experimental: In the present study, a memory saving model was used. MK-801 (Dizocilpine), an uncompetitive antagonist of the NMDA receptor was used to cause deficit of recognition memory. sGC stimulators were evaluated for their efficacy to prevent memory impairment induced by MK-801.
Adult male Long-Evans rats (275-299 gram at arrival from Envigo, Indianapolis, IN) were used in this study. Rats were placed in the experimental rooms and assigned unique identification numbers (tail marks). Rats were housed 2 per cage in polycarbonate cages with filter tops and acclimated for at least 7 days prior to testing. […]
NOR test was conducted in an open-field arena (40×40 cm) placed in a sound-attenuated room under dimmed lighting. […] All training and testing trials were video-taped and scored by an observer blind to treatments.
On Days 1 and 2, rats were allowed to freely explore the arena (no objects inside) for a 5-minute habituation period. […] Each rat was placed in the arena facing the same direction at the same position, and the time spent actively exploring the objects during a 3-minute training period (T1) was recorded. […] Each rat was placed back into the test arena in the presence of one familiar object and one novel object for 5 minutes, and the time spent exploring both objects was recorded. […]

Oc1nc(-c2cn3ccnc3c(Cc3cc(F)ccc3F)n2)ncc1F [Compound I-20, 5-fluoro-2-(8-(2,5-difluorobenzyl)imidazo[1,2-a]pyrazin-6-yl)pyrimidin-4-ol]
obvious side effects in NOR study: None of the rats in this study showed obvious side effects
